According to ChEMBL document CHEMBL3297655, “Beyond affinity: enthalpy-entropy factorization unravels complexity of a flat structure-activity relationship for inhibition of a tRNA-modifying enzyme” (J Med Chem, 2014):

How the values were obtained:
[1] = Inhibition of tRNA-guanine transglycosylase (unknown origin) assessed as entropy at 25 degC at 200 to 300 uM by isothermal titration calorimetry
[2] = Inhibition of tRNA-guanine transglycosylase (unknown origin) assessed as buffer-corrected enthalpy values at 25 degC at 200 to 300 uM by isothermal titration calorimetry
[3] = Inhibition of tRNA-guanine transglycosylase (unknown origin) assessed as Gibbs free enthalpy at 25 degC at 200 to 300 uM by isothermal titration calorimetry

SMILES	-TdeltaS [1]	deltaH [2]	deltaG [3]
Nc1nc2cc3[nH]c(NCCN4CCOCC4)nc3cc2c(=O)[nH]1	12.9 kcal/mol	-23 kcal/mol	-10.2 kcal/mol
O=c1[nH]cnc2cc3nc(NCCN4CCOCC4)[nH]c3cc12	2.92 kcal/mol	-11.7 kcal/mol	-8.77 kcal/mol
Nc1nc2cc3[nH]c(NCCN4CCCCC4)nc3cc2c(=O)[nH]1	8.68 kcal/mol	-18.9 kcal/mol	-10.2 kcal/mol
CNc1nc2cc3c(=O)[nH]cnc3cc2[nH]1	2.68 kcal/mol	-11.4 kcal/mol	-8.72 kcal/mol

Next, values leading:

-TdeltaS [1]	deltaH [2]	deltaG [3]	SMILES
2.17 kcal/mol	-10.1 kcal/mol	-7.89 kcal/mol	O=c1[nH]cnc2cc3nc(NCc4cccs4)[nH]c3cc12
6.36 kcal/mol	-15.8 kcal/mol	-9.49 kcal/mol	Nc1nc2cc3nc(NCc4cccs4)[nH]c3cc2c(=O)[nH]1
13.3 kcal/mol	-23.3 kcal/mol	-9.94 kcal/mol	CNc1nc2cc3c(=O)[nH]c(N)nc3cc2[nH]1
3.37 kcal/mol	-12.1 kcal/mol	-8.72 kcal/mol	O=c1[nH]cnc2cc3[nH]c(NCCN4CCCCC4)nc3cc12
